Among the data in patent US20190375708A1 (VenatoRx Pharmaceuticals, Inc., priority 2018, published 2019) are CC50 and EC50 values, retold here.

SMILES strings stand for the structures. Read-outs that look alike come from different tables or passages of the source.

Series [1] can be described thus: In vitro cytotoxicity assay (MTT cell viability) in HepG2 cells. In kind it is cell-based, human. Particulars: human. Here is the method: To evaluate antiviral selectivity, the cytotoxic activity of each compound was determined using a standard cell viability assay performed on the parental HepG2 cell line. Cell viability was determined by measuring the conversion of 3-(4,5-dimethylthiazol-2-yl)-2,5-diphenyltetrazolium bromide (MTT) to the insoluble formazan salt crystal that occurs in live cells. Briefly, HepG2 cells were seeded in 96-well plates at a density of 20,000 cells per well in EMEM+10% FBS (complete growth medium) and allowed to adhere overnight in a 37° C., 5% CO2 humidified incubator. The next day, test agents were prepared by performing 8 half-log10 serial dilutions in 100% DMSO at 200× the final desired concentration in the assay. Compounds were tested over a range of concentrations from 30 μM to 1.0 nM in the assay. HepG2 cells were incubated in the presence of various concentrations of CAMs for 7 days in a 37° C., 5% CO2 humidified incubator. At the completion of the 7-day incubation period, MTT reagent was added to each well and the mixture was incubated for an additional 3-4 hours. At the completion of the incubation period, all wells were aspirated to remove the culture medium. The formazan crystals were solubilized from the cell monolayers with 100% DMSO. Plates were briefly mixed on an orbital shaker and absorbance was measured at 492 nm using a Perkin-Elmer EnVision multi-label plate reader. All absorbance values were converted to a percentage of the signal obtained from the vehicle treated controls. Absorbance values at 492 nm are directly proportional to the number of viable cells present in the sample. A CC50 value (cytotoxic concentration that results in loss of 50% cell viability) was calculated from the dose-response curve by 4-parameter, non-linear regression analysis using the GraphPad Prism software. The positive control compound, staurosporine, reduced the viability of HepG2 cells in a dose-dependent manner (CC50=100 nM).

The test system of series [2] is HBV replication in HepAD38 cells. The series is described as follows: Anti-HBV replication assay in HepAD38 cells (QPCR of extracellular HBV DNA). Particulars: Hepatitis B virus. In kind it is cell-based, HBV (genotype D, serotype ayw). Here is the method: The anti-HBV activity of the Capsid Assembly Modulators (CAMs) was evaluated in a cell based assay utilizing the human hepatoma cell line HepAD38 (Ladner, S K., et al., 1998). HepAD38 cells were derived from the parental line, HepG2, that were stably transfected with a construct containing an HBV genome (genotype D, serotype ayw) under the control of a tetracycline repressible CMV promoter. Upon removal of tetracycline, viral pre-genomic RNA (pgRNA) and mRNAs are expressed and infectious viral particles are assembled and secreted into the culture medium providing a reliable, robust system to measure multiple steps of the HBV life cycle. Disruption of capsid formation results in reduced levels of DNA-containing virus particles that are released into the culture supernatant. To quantify the effect of CAMs on HBV replication, we developed a sensitive QPCR-based assay that measures extracellular HBV DNA levels upon treatment of HepAD38 cells with various concentrations of test compounds.
HepAD38 cells were maintained in DMEM/F12 medium containing 10% FBS, 400 μg/mL G418 and 0.3 μg/mL tetracycline (tet+ media) to maintain repression of HBV replication. To evaluate each compound, HepAD38 cells were seeded into 24-well collagen coated culture plates (Corning BioCoat) at a density of 200,000 cells per well in 1 mL of medium without tetracycline (tet-media) and allowed to adhere overnight at 37° C., 5% CO2 in a humidified incubator. The following day, media was refreshed and a dose range of each compound was prepared by performing 1 log10 serial dilutions in 100% DMSO at 200× the desired assay concentration. Dilutions were then added to the cells resulting in a final dose range of 1 μM to 10 μM and the plates were returned to the incubator. Following 7 days of incubation, culture supernatants were harvested and HBV DNA levels were evaluated by QPCR and compared to the vehicle treated control wells (i.e. DMSO alone).
To quantify HBV DNA levels, cell culture supernatants were diluted 1:10 in sterile, nuclease-free water (Gibco). The diluted supernatants were subsequently added to a PCR master mix containing 1× Roche Light Cycler Master Mix, 0.5 μM forward primer, 0.5 μM reverse primer (Fwd: 5′-[…] (SEQ ID NO 1); Rev: 5′-[…] (SEQ ID NO 2)), 0.2 μM Roche Universal Probe Library Probe 25. The volume was brought to 20 μL with nuclease-free water and amplification of the HBV target sequence was performed using a Roche LightCycler 480 QPCR instrument. PCR extended out to 45 cycles with each cycle consisting of a denaturation step at 95° C. for 10 sec., followed by an annealing step at 60° C. for 10 sec. and a brief extension step at 72° C. for 1 sec.
Extracellular HBV DNA levels, expressed in copies/mL, were determined by comparison to a standard curve (10^2-10^9 copies/mL) using the Roche LightCycler analysis software. These values were subsequently converted to percent inhibition of HBV replication by dividing the HBV DNA levels in the experimental samples with those obtained from the vehicle control (˜1-2×10^5 copies/mL). Potency, expressed as an EC50 (the effective concentration required to inhibit 50% of HBV replication), was calculated from the dose-response curve using a 4-parameter non-linear regression analysis (GraphPad Prism). The nucleoside analog inhibitor entecavir was used as a positive control to validate each assay run. The EC50 value of entecavir in the HepAD38 assay was 0.5 nM, as previously reported in the literature.

Where [3] appears, read: 168 h, 7 days incubation, extracellular HBV DNA by QPCR, read-out: Anti-HBV EC50.

Consider `Cc1cc(NC(=O)c2c(C)c(C(=O)C(=O)NC3CCc4nc(N)sc4C3)n(C)c2C)cnc1F` (stereo in doubt) [Example 138, (S)-5-(2-((2-amino-4,5,6,7-tetrahydrobenzo[d]thiazol-6-yl)amino)-2-oxoacetyl)-N-(6-fluoro-5-methylpyridin-3-yl)-1,2,4-trimethyl-1H-pyrrole-3-carboxamide], for which the CC50 – broadly, the concentration that lowers cell viability or growth by half – at 7 days in series [1] was in the range of 500 to 4990 nM. Also, the EC50 (as a rule, the concentration at which the effect is half-maximal) in series [2] (setting [3]) was < 50 nM. For `Cc1cc(NC(=O)c2cc(C(=O)C(=O)NC(C)(C)C)n(C)c2)ccc1F` [Example 1, 5-(2-(tert-butylamino)-2-oxocetyl)-N-(4-fluoro-3-methylphenyl)-1-methyl-1H-pyrrole-3-carboxamide] the same measures were > 30000 nM and < 50 nM. Consider `Cc1cc(NC(=O)c2c(C)c(C(=O)C(=O)NC(C)(C)C)n(C)c2C)ccc1F` [Example 2, 5-(2-(tert-butylamino)-2-oxoacetyl)-N-(4-fluoro-3-methylphenyl)-1,2,4-trimethyl-1H-pyrrole-3-carboxamide], for which the 50% cytotoxic concentration (CC50) at 7 days in series [1] is > 30000 nM. In addition, the EC50 in series [2] (setting [3]) was < 50 nM. `Cc1[nH]c(C(=O)C(=O)NC(C)(C)C)c(C)c1C(=O)Nc1ccc(F)c(Cl)c1` [Example 3, 5-(2-(tert-butylamino)-2-oxoacetyl)-N-(3-chloro-4-fluorophenyl)-2,4-dimethyl-1H-pyrrole-3-carboxamide] had a CC50 at 7 days in series [1] of 5000 to 30000 nM. Further, in series [2] (setting [3]), the EC50 was < 50 nM. For `Cc1c(C(=O)Nc2ccc(F)c(F)c2)c(C)n(C)c1C(=O)C(=O)NC(C)(C)C` [Example 4, 5-(2-(tert-butylamino)-2-oxoacetyl)-N-(3,4-difluorophenyl)-1,2,4-trimethyl-1H-pyrrole-3-carboxamide] the same measures were > 30000 nM and < 50 nM. For `Cc1cc(NC(=O)c2c(C)c(C(=O)C(=O)NC(C)(C)CF)n(C)c2C)ccc1F` [Example 6, 5-(2-((1-fluoro-2-methylpropan-2-yl)amino)-2-oxoacetyl)-N-(4-fluoro-3-methylphenyl)-1,2,4-trimethyl-1H-pyrrole-3-carboxamide] the same measures were > 30000 nM and < 50 nM. For `Cc1cc(NC(=O)c2c(C)c(C(=O)C(=O)NC3(CO)CC3)n(C)c2C)ccc1F` [Example 7, N-(4-fluoro-3-methylphenyl)-5-(2-((1-(hydroxymethyl)cyclopropyl)amino)-2-oxoacetyl)-1,2,4-trimethyl-1H-pyrrole-3-carboxamide] the same measures were > 30000 nM and < 50 nM. For the molecule `Cc1cc(NC(=O)c2c(C)c(C(=O)C(=O)NC(C)(C)CO)n(C)c2C)ccc1F` [Example 8, N-(4-fluoro-3-methylphenyl)-5-(2-((1-hydroxy-2-methylpropan-2-yl)amino)-2-oxoacetyl)-1,2,4-trimethyl-1H-pyrrole-3-carboxamide], in series [1], the 50% cytotoxic concentration (CC50) at 7 days was > 30000 nM. Also, the EC50 in series [2] (setting [3]) is < 50 nM. For `Cc1cc(NC(=O)c2c(C)c(C(=O)C(=O)NC(C)(C)C(F)(F)F)n(C)c2C)ccc1F` [Example 9, N-(4-fluoro-3-methylphenyl)-1,2,4-trimethyl-5-(2-oxo-2-((1,1,1-trifluoro-2-methylpropan-2-yl)amino)acetyl)-1H-pyrrole-3-carboxamide], in series [1], the CC50 at 7 days was > 30000 nM. The EC50 in series [2] (setting [3]) was < 50 nM. Consider `Cc1cc(NC(=O)c2c(C)c(C(=O)C(=O)NC(C)C(F)(F)F)n(C)c2C)ccc1F` (stereo not drawn) [Example 10, N-(4-fluoro-3-methylphenyl)-1,2,4-trimethyl-5-(2-oxo-2-((1,1,1-trifluoropropan-2-yl)amino)acetyl)-1H-pyrrole-3-carboxamide], for which, in series [1], the CC50 at 7 days was 5000 to 30000 nM. Also, the EC50 in series [2] (setting [3]) is < 50 nM. Consider `Cc1cc(NC(=O)c2c(C)c(C(=O)C(=O)NC(C)(C)CCO)n(C)c2C)ccc1F` [Example 11, N-(4-fluoro-3-methylphenyl)-5-(2-((4-hydroxy-2-methylbutan-2-yl)amino)-2-oxoacetyl)-1,2,4-trimethyl-1H-pyrrole-3-carboxamide], for which the CC50 at 7 days in series [1] is > 30000 nM. For the same molecule, the EC50 in series [2] (setting [3]) was < 50 nM.

Take `Cc1cc(NC(=O)c2c(C)c(C(=O)C(=O)NC3(CO)CCC3)n(C)c2C)ccc1F` [Example 12, N-(4-fluoro-3-methylphenyl)-5-(2-((1-(hydroxymethyl)cyclobutyl)amino)-2-oxoacetyl)-1,2,4-trimethyl-1H-pyrrole-3-carboxamide]: the CC50 at 7 days in series [1] was > 30000 nM. Further, in series [2] (setting [3]), the EC50 is < 50 nM.

Consider `Cc1cc(NC(=O)c2c(C)c(C(=O)C(=O)NC3(CO)CCOC3)n(C)c2C)ccc1F` (stereo not drawn) [Example 13, N-(4-fluoro-3-methylphenyl)-5-(2-((3-(hydroxymethyl)tetrahydrofuran-3-yl)amino)-2-oxoacetyl)-1,2,4-trimethyl-1H-pyrrole-3-carboxamide], for which the CC50 at 7 days in series [1] is > 30000 nM. Further, the EC50 in series [2] (setting [3]) is < 50 nM.

Take `Cc1cc(NC(=O)c2c(C)c(C(=O)C(=O)NC34CC5CC(CC(C5)C3)C4)n(C)c2C)ccc1F` [Example 14, 5-(2-(((3s,5s,7s)-adamantan-1-yl)amino)-2-oxoacetyl)-N-(4-fluoro-3-methylphenyl)-1,2,4-trimethyl-1H-pyrrole-3-carboxamide]: the CC50 at 7 days in series [1] lay in the range of 5000 to 30000 nM. Further, in series [2] (setting [3]), the EC50 is < 50 nM. For the molecule `Cc1cc(NC(=O)c2c(C)c(C(=O)C(=O)NC34CC5CC(CC(O)(C5)C3)C4)n(C)c2C)ccc1F` [Example 15, N-(4-fluoro-3-methylphenyl)-5-(2-(((1r,3s,5R,7S)-3-hydroxyadamantan-1-yl)amino)-2-oxoacetyl)-1,2,4-trimethyl-1H-pyrrole-3-carboxamide], the CC50 at 7 days in series [1] is > 30000 nM. The EC50 in series [2] (setting [3]) was < 50 nM.

Consider `Cc1c(C(=O)Nc2ccc(F)c(Cl)c2)c(C)n(C)c1C(=O)C(=O)Nc1ccc(F)cn1` [Example 310, N-(3-chloro-4-fluorophenyl)-5-(2-((5-fluoropyridin-2-yl)amino)-2-oxoacetyl)-1,2,4-trimethyl-1H-pyrrole-3-carboxamide], for which the EC50 in series [2] (setting [3]) was < 50 nM. As to `C=C1[C@H](CO)[C@@H](O)C[C@@H]1n1cnc2c(=O)[nH]c(N)nc21` [entecavir, reference compound], in series [2] (positive control, read-out: EC50 in the HepAD38 assay), the EC50 was found to be 0.5 nM. For the molecule `CN[C@@H]1C[C@H]2O[C@@](C)([C@@H]1OC)n1c3ccccc3c3c4c(c5c6ccccc6n2c5c31)C(=O)NC4` [staurosporine, reference compound], the CC50 at 7 days in series [1] (positive control, HepG2 cells, 7 days, MTT, read-out: CC50 (loss of 50% cell viability)) was determined as 100 nM.
